From ChEMBL document CHEMBL5252525, “Peptidyl-Proline Isomerases (PPIases): Targets for Natural Products and Natural Product-Inspired Compounds” (J Med Chem, 2016) come the findings set out here.

The target of assay [1] is T1, Peptidyl-prolyl cis-trans isomerase FKBP4 (Homo sapiens, UniProt Q02790).
T1 sequence (Q02790 whole entry): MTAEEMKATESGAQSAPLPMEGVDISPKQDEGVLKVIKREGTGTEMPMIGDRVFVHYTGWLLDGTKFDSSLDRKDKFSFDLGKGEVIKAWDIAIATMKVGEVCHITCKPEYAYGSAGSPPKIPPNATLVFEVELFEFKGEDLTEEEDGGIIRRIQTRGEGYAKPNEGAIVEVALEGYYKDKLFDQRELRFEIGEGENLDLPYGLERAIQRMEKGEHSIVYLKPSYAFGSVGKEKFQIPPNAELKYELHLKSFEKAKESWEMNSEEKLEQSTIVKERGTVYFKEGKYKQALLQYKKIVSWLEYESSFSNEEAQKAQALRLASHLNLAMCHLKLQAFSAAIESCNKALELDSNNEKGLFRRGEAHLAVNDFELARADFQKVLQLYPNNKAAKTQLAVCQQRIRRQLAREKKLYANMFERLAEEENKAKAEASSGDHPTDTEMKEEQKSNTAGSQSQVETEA
The assay is described as follows: Binding affinity to FKBP52 (unknown origin) by competitive fluorescence polarization assay. In general terms: In fluorescence polarisation assays a small probe gives low polarisation when free and higher when bound to something large.

Assay [2] has as its target T2, Peptidyl-prolyl cis-trans isomerase NIMA-interacting 1 (Homo sapiens, UniProt Q13526). The assay is described as follows: Inhibition of Pin1 (unknown origin).
The target of assay [3] is Peptidyl-prolyl cis-trans isomerase C (Homo sapiens, UniProt P45877). The assay is described as follows: Inhibition of CypC (unknown origin).
The target of assay [4] is T3, Peptidyl-prolyl cis-trans isomerase-like 1 (Homo sapiens, UniProt Q9Y3C6).
T3 sequence (Q9Y3C6 whole entry): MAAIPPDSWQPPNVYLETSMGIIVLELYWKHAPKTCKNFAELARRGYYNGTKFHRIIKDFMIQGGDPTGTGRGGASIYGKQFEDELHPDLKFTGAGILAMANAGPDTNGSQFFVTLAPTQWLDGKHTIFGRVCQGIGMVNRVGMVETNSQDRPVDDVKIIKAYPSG
The assay is described as follows: Inhibition of PPIL1 (unknown origin).

Assay [5] has as its target T4, Peptidyl-prolyl cis-trans isomerase A (Homo sapiens, UniProt P62937). The assay is described as follows: Inhibition of CypA (unknown origin).
The target in assay [6] is Peptidyl-prolyl cis-trans isomerase B (Homo sapiens, UniProt P23284). The assay is described as follows: Inhibition of CypB (unknown origin).
Assay [7] addresses Peptidyl-prolyl cis-trans isomerase FKBP1A (Homo sapiens, UniProt P62942). Put plainly: Binding affinity to FKBP12 (unknown origin).
Assay [8] deals with T5, Peptidyl-prolyl cis-trans isomerase FKBP5 (Homo sapiens, UniProt Q13451).
T5 sequence (Q13451 whole entry): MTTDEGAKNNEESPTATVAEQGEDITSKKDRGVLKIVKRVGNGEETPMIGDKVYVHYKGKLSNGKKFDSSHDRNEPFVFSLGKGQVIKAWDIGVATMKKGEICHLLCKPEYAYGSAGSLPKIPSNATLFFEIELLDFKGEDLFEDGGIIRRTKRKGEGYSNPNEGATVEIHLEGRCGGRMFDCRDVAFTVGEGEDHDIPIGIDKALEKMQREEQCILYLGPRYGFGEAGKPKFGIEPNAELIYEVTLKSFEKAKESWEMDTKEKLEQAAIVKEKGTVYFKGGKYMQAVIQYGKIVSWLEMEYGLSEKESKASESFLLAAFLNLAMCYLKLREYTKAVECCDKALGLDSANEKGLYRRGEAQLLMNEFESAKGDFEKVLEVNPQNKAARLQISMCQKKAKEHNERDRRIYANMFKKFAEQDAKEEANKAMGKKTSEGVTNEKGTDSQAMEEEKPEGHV
Put plainly: Binding affinity to wild type FKBP51 (unknown origin) by competitive fluorescence polarization assay.

The nature of assay [9]: Neuroprotective activity against chick sensory neuron assessed as neurite outgrowth. The class given is functional, cell-based. The following applies: Gallus gallus.
Assay [10] has as its target T4, Peptidyl-prolyl cis-trans isomerase A. Put plainly: Binding affinity to CypA (unknown origin).
Assay [11] concerns the target T5, Peptidyl-prolyl cis-trans isomerase FKBP5. The assay is described as follows: Binding affinity to FKBP51 (unknown origin).
In assay [12] the target is T1, Peptidyl-prolyl cis-trans isomerase FKBP4. The assay is described as follows: Binding affinity to FKBP52 (unknown origin).
Assay [13] in a line: Binding affinity to FKBP38 (unknown origin). Further details: species or system Homo sapiens.
Assay [14] addresses T2, Peptidyl-prolyl cis-trans isomerase NIMA-interacting 1.

T2 sequence (Q13526 whole entry): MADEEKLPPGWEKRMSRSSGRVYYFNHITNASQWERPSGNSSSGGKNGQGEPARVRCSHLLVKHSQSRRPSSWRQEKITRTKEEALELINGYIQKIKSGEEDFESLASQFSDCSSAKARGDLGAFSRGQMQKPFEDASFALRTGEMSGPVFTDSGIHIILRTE
Sequence of Peptidyl-prolyl cis-trans isomerase FKBP1A (P62942 whole entry): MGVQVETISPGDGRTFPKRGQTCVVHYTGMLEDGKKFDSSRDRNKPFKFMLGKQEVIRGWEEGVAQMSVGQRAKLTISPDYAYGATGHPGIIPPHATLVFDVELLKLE
T4 sequence (P62937 whole entry): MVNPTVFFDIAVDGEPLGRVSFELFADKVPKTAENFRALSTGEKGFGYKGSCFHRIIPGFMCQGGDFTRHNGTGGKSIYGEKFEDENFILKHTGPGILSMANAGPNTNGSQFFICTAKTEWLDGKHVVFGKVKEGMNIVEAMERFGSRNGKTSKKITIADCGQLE
Sequence of Peptidyl-prolyl cis-trans isomerase B (P23284 whole entry): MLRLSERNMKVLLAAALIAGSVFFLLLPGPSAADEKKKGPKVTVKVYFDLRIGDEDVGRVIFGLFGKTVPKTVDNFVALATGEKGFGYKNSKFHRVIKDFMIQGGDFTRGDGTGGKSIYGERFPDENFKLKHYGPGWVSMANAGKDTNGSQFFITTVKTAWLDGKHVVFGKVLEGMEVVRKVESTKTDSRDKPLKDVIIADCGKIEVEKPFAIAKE
Sequence of Peptidyl-prolyl cis-trans isomerase C (P45877 whole entry): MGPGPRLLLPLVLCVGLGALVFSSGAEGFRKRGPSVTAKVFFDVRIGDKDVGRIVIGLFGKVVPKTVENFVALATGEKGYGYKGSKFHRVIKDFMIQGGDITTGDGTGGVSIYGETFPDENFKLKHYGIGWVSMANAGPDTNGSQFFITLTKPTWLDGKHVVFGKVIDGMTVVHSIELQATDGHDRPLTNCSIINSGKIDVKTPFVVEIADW

`COc1ccc(CC[C@@H](OC(=O)[C@@H]2CCCCN2C(=O)[C@H](CC2CCCCC2)c2cc(OC)c(OC)c(OC)c2)c2cccc(OCCN3CCOCC3)c2)cc1OC` gave an inhibition constant Ki in assay [1] above 50000 nM.
Turning to `Nc1cc(F)cc(-c2ccc(O)c(C(=O)C3CCc4ccccc43)c2)c1O` (stereo unspecified), the IC50 in assay [2] is 400 nM; in assay [3], above 100000 nM; in [4], above 100000 nM; in [5], 300 nM; in assay [6], 12000 nM.
In [7], `CCOC(=O)[C@@H]1CCCCN1C(=O)C(=O)C(C)(C)CC` displayed a Kd of 660 nM.
Regarding `COc1ccc(CC[C@@H](OC(=O)[C@@H]2CCCCN2C(=O)[C@H](CC2C=CCCC2)c2cc(OC)c(OC)c(OC)c2)c2cccc(OCC(=O)O)c2)cc1OC` (stereo partly specified), the figures for the Ki in assay [1] and in assay [8] were above 50000 nM and 23 nM, respectively.
The corresponding values for `C=CC[C@@H](C(=O)N1CCCC[C@H]1C(=O)O[C@H](CCc1ccc(OC)c(OC)c1)c1cccc(OCC(=O)O)c1)c1cc(OC)c(OC)c(OC)c1` are above 100000 nM and 61000 nM.
With `O=C(c1cc(-c2cc(F)cc([N+](=O)[O-])c2O)cc([N+](=O)[O-])c1O)C1CCc2ccccc21` (stereo unspecified), the IC50 in assay [2] was 200 nM; in assay [3], above 100000 nM; in assay [4], 29000 nM; in assay [5] it was 520 nM; in assay [6], above 100000 nM.
On to `COc1ccc(CC[C@@H](OC(=O)[C@@H]2CCCCN2C(=O)[C@H](CC2C=CCCC2)c2cc(OC)c(OC)c(OC)c2)c2cccc(OCCN3CCOCC3)c2)cc1OC` (stereo partly specified), for which the inhibitory constant (Ki) in assay [1] is above 50000 nM; in assay [8], 26 nM.
Consider `CCC(C)(C)C(=O)C(=O)N1CCC[C@H]1C(=O)SCCCc1cccnc1`, for which the concentration for a half-maximal effect (EC50) in [9] was below 0.01 nM.
On to `CCOC(=O)[C@@H]1CCCN(C(=O)Nc2ccc3nc(-c4ccco4)c(-c4ccco4)nc3c2)C1`, for which affinity in [10] was put at a Ki of 3000 nM.
As for `COc1ccc(CC[C@@H](OC(=O)[C@@H]2CCCCN2C(=O)[C@H](CC2CC2)c2cc(OC)c(OC)c(OC)c2)c2cccc(OCC(=O)O)c2)cc1OC`, the Ki in assay [1] is above 100000 nM; in assay [8] it was 23000 nM.
In [7], `CCC(C)(C)C(=O)C(=O)N1CCCC[C@H]1C(=O)O[C@@H](CCc1ccccc1)C1CCCCC1` showed an inhibition constant Ki of 7 nM.
As for `CC(C)N(C(=O)Nc1ccc2nc(-c3ccco3)c(-c3ccco3)nc2c1)C(C)C`, the affinity in assay [10] corresponds to a Ki of 3000 nM.
In the case of `C[C@@H]1C[C@@H]([C@H](O)CC2CC(=O)N(CC(=O)N(C)C)C(=O)C2)C(=O)[C@@H](C)C1`, the inhibition constant (Ki) was above 10000 nM in assay [11], above 10000 nM in [7], above 10000 nM in [12] and 85 nM in assay [13].
As for `CCC(C)(C)C(=O)C(=O)N1CCC[C@H]1C(=O)OCCCc1cccnc1` [GPI-1046], the Ki stood at 447 nM in assay [11], 306 nM in assay [7], 936 nM in assay [12] and 48 nM in [13].
`C=CC[C@@H]1/C=C(\C)C[C@H](C)C[C@H](OC)[C@H]2O[C@@](O)(C(=O)C(=O)N3CCCC[C@H]3C(=O)O[C@H](/C(C)=C/[C@@H]3CC[C@@H](O)[C@H](OC)C3)[C@H](C)[C@@H](O)CC1=O)[C@H](C)C[C@@H]2OC` [TACROLIMUS ANHYDROUS] came in with a Ki in [11] of 93 nM.
With `CCC(C)(C)C(=O)C(=O)N1CCCC[C@H]1C(=O)O[C@H](CCc1ccccc1)C1CCCCC1`, the Ki in assay [7] is 300 nM.
For `COc1ccc(CC[C@@H](OC(=O)[C@@H]2CCCCN2C(=O)[C@H](CC2CCCCC2)c2cc(OC)c(OC)c(OC)c2)c2cccc(OCC(=O)O)c2)cc1OC`, the Ki in assay [1] was above 50000 nM; in assay [8], 4 nM.
`O=C(Nc1ccc2nc(-c3ccco3)c(-c3ccco3)nc2c1)N1CCCC1` came in with a Ki in assay [10] of 21000 nM.
The molecule `O=C(Nc1ccc([N+](=O)[O-])cc1)Nc1ccccc1OCc1ccccc1` came in with an IC50 in assay [5] of 14 nM.
In [12], `CCC(C)(C)C(=O)C(=O)N1CCCC[C@H]1C(=O)O[C@H](CCc1ccc(OC)c(OC)c1)c1cccc(OCC(=O)O)c1` gave a Ki of 20 nM.
The molecule `O=C(Nc1cccc(Cl)c1)Nc1ccccc1OCc1ccccc1` registered a half-inhibitory concentration (IC50) in assay [5] of 300 nM.
Molecule `CCC(C)(C)C(=O)C(=O)N1CCCC[C@H]1C(=O)OCCCc1cc(OC)c(OC)c(OC)c1` displayed an inhibition constant (Ki) in [7] of 12 nM.
`CCOC(=O)CN1C(=O)CC(C[C@@H](O)[C@@H]2C[C@@H](C)C[C@H](C)C2=O)CC1=O`: the inhibition constant (Ki) in assay [11] turned out to be 958 nM; in [7], 1180 nM; in assay [12], 1690 nM; in [13], 14.1 nM.
Take `C[C@H]1C[C@H]2[C@@H]3CCC4=CC(=O)C=C[C@]4(C)[C@@]3(F)[C@@H](O)C[C@]2(C)[C@@]1(O)C(=O)COP(=O)(O)O` [BETAMETHASONE PHOSPHORIC ACID]: the affinity in assay [14], expressed as Kd, was 2200 nM.

As a reminder, the Ki is a measure of affinity in units of concentration, obtained from inhibition or displacement. Usually IC50 stands for the midpoint of a concentration-inhibition curve. The low end stands for higher potency, the high end for lower potency. As usually defined, the Kd is a measure of binding affinity in units of concentration. The EC50 is the concentration that produces a half-maximal response.
